16 compounds from the SangsterLogP compilation can be followed below.

The logP is the decadic logarithm of the partition coefficient of the neutral form, usually between octanol and water. The low end stands for lower lipophilicity, the high end for higher lipophilicity.

The data set can be described thus: method code SF-AS, from Rouot, B.; Leclerc, G.; Wermuth, C.; Miesch, F.; Schwartz, J. (1977). Structure-activity relations and problems related to the mechanism of action of clonidine.Journal de Pharmacologie, 8(1)95-106.
Consider `Cc1ccc(NC2=NCCN2)c(Cl)c1`, for which the logP was found to be 1.87.
The compound `CC(C)c1cccc(C(C)C)c1NC1=NCCN1` returned a logP of 3.04.
For `COc1cc(OC)c(NC2=NCCN2)cc1Cl` the value was 1.38.
For `Cc1cccc(Cl)c1NC1=NCCN1` the value was 1.41; for `COc1cc(C)ccc1NC1=NCCN1`, 1.64.
For `c1ccc(NC2=NCCN2)cc1` the value was 1.01; for `Brc1cccc(Br)c1NC1=NCCN1`, 1.73; for `COc1ccc(OC)c(NC2=NCCN2)c1`, 0.97.
`Brc1ccc(NC2=NCCN2)cc1` showed a log partition coefficient (logP) of 1.75.
The compound `Cc1cc(Cl)ccc1NC1=NCCN1` displayed a logP of 1.77.
Take `Fc1cccc(F)c1N=C1NCCN1`: the logP is 1.06.
Next, `Oc1cc(Cl)c(NC2=NCCN2)c(Cl)c1`: 1.52.
Consider `Cc1cccc(C)c1NC1=NCCN1`, for which the logP turned out to be 1.45.
For `FC(F)(F)c1ccccc1NC1=NCCN1` the value was 1.42; for `Cc1ccc(Cl)cc1NC1=NCCN1`, 1.8.
Next, `Clc1ccc(NC2=NCCN2)c(Cl)c1`: 1.96.
